Data on 15 molecules can be found in ChEMBL document CHEMBL1201862, “PubChem BioAssay data set” (2004).

Some test systems named below: NCI-H460; HCC 2998; CCRF-CEM; HT-29; SW-620; CAKI-1; U-251; DMS-114; OVCAR-5; SK-MEL-2; SF-295; K562; NCI-H23; SR.
Common to all, as to assay: inhibition of tumour cell growth, NCI panel, 48 h

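Compound exposure: 48 hours, 5 concentrations, 96-well plates. GI50 = concentration required for 50% inhibition of growth.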 The source made the active and inactive calls. Rule as the data show it: active = GI50 up to about 1.1 µM and inactive = higher. Where only a bound is given, the exact number is not on record here.

On to `CCN(CCCl)CCCCCNc1c2ccccc2nc2ccc(OC)cc12`, for which the GI50 in the test on NCI-H460 is 0.07 µM (active); with HCC 2998, 1.04 µM (active); in the test on CCRF-CEM it was 0.0857 µM (active); in the test on HT-29 it was 0.259 µM (active); in the test with SW-620 it was 0.154 µM (active); in the test on CAKI-1 it was 2.84 µM (inactive). Also, the GI50 in the test on U-251 is 0.603 µM (active); in the test on DMS-114, 0.334 µM (active); in the test on OVCAR-5 it was 1.55 µM (inactive); with SK-MEL-2, 1.09 µM (active); with SF-295, 1.47 µM (inactive); with K562, 0.149 µM (active). For the same molecule, the GI50 in the test on NCI-H23 is 0.356 µM (active).
Take `C/C(=N\NC(=N)N)C(CN1CCOCC1)C(c1ccccc1)c1c(O)c2ccccc2oc1=O` (stereo not given): the GI50 in the test on NCI-H460, with HCC 2998, in the test on CCRF-CEM, with HT-29, with SW-620 and in the test with CAKI-1 was > 100 µM (inactive) in each case. Further, the GI50 in the test with U-251 was > 100 µM (inactive); in the test on DMS-114 it was 45.8 µM (inactive); in the test on OVCAR-5, > 100 µM (inactive); in the test with SR it was 80 µM (inactive); with SK-MEL-2 it was > 100 µM (inactive); in the test with SF-295 it was > 100 µM (inactive). Moreover, the GI50 is > 100 µM (inactive) in the test on K562 and 76.7 µM (inactive) with NCI-H23.
In the case of `N#Cc1ccc(Nc2cnc3cc(N)ccc3n2)cc1`, the GI50 in the test with NCI-H460 is 58.1 µM (inactive); with HCC 2998, > 100 µM (inactive); in the test with CCRF-CEM it was 33 µM (inactive); with HT-29, 50.5 µM (inactive); in the test on SW-620, > 100 µM (inactive); in the test on CAKI-1, 66.5 µM (inactive). In addition, the GI50 in the test on U-251 is > 100 µM (inactive); with DMS-114 it was 60.5 µM (inactive); in the test with OVCAR-5 it was > 100 µM (inactive); in the test on SR, 44.4 µM (inactive); in the test on SK-MEL-2 it was > 100 µM (inactive); in the test with SF-295, > 100 µM (inactive). Further, the figures for the GI50 in the test with K562 and with NCI-H23 were 28.3 µM (inactive) and > 100 µM (inactive), respectively.
Turning to `N#CC1=C(N)Oc2c(ccc3cccnc23)C1c1ccccc1` (stereo not given), the GI50 was 0.738 µM (active) with NCI-H460; 4.69 µM (inactive) in the test with HCC 2998; 1.44 µM (inactive) in the test with CCRF-CEM; 0.339 µM (active) with HT-29; 0.51 µM (active) in the test on SW-620; 0.619 µM (active) in the test on CAKI-1. In addition, the GI50 in the test on U-251 is 0.908 µM (active); with DMS-114, 0.914 µM (active); with OVCAR-5, 72.4 µM (inactive); in the test with SR, 0.333 µM (active); with SK-MEL-2, 0.296 µM (active); in the test on SF-295, 0.515 µM (active). Besides, the GI50 was 0.396 µM (active) in the test with K562 and 1.31 µM (inactive) in the test on NCI-H23.
Regarding `N=C(NNS(=O)(=O)c1ccccc1)Oc1ccc(Br)cc1Br`, the GI50 in the test with NCI-H460 was > 100 µM (inactive); in the test with HCC 2998, > 100 µM (inactive); in the test with CCRF-CEM it was 71.4 µM (inactive); in the test on HT-29, 55.7 µM (inactive); in the test with SW-620, 11.9 µM (inactive); in the test with CAKI-1, > 100 µM (inactive). The GI50 in the test with U-251, in the test with DMS-114, with OVCAR-5, with SR, with SK-MEL-2 and in the test with SF-295 was > 100 µM (inactive) throughout. Besides, the GI50 is 90.6 µM (inactive) in the test on K562 and 84.7 µM (inactive) in the test with NCI-H23.
`CCCC/C=C1\CCC(CN2CCCC2)C1=O` (stereo not given): the GI50 in the test on NCI-H460 is 19.9 µM (inactive); in the test on HCC 2998, 18.7 µM (inactive); in the test on CCRF-CEM, 3.5 µM (inactive); in the test with HT-29, 14.5 µM (inactive); with SW-620, 2.07 µM (inactive); in the test on CAKI-1 it was > 10 µM (inactive). Also, the GI50 with U-251 was 6.75 µM (inactive); in the test with DMS-114, 15.9 µM (inactive); in the test on OVCAR-5, 19.1 µM (inactive); in the test with SR, 4.36 µM (inactive); in the test on SK-MEL-2, 16 µM (inactive); with SF-295, 18.1 µM (inactive). Besides, the values for the GI50 in the test with K562 and in the test with NCI-H23 were 2.71 µM (inactive) and 17.7 µM (inactive), respectively.
Regarding `OCCN(CCO)c1ncnc2c1sc(=S)n2-c1ccccc1`, the GI50 in the test with NCI-H460, in the test on HCC 2998, in the test on CCRF-CEM, with HT-29, in the test with SW-620 and in the test with CAKI-1 was > 100 µM (inactive) throughout. The GI50 with U-251, in the test with DMS-114, with OVCAR-5, in the test on SR, in the test on SK-MEL-2 and in the test on SF-295 was > 100 µM (inactive) throughout. Besides, the GI50 in the test with K562 and in the test with NCI-H23 was > 100 µM (inactive) in each case.
For `CCOC(=O)C12CCSC1C1(C#N)C(C#N)=CC2(N=P(c2ccccc2)(c2ccccc2)c2ccccc2)n2c(=O)n(-c3ccccc3)c(=O)n21` (stereo not given), the GI50 with NCI-H460 is 37.7 µM (inactive); in the test with HCC 2998 it was 27.7 µM (inactive); in the test with CCRF-CEM, 34.5 µM (inactive); in the test on HT-29 it was 39.8 µM (inactive); in the test on SW-620, 64 µM (inactive); in the test with CAKI-1 it was 28.6 µM (inactive). The GI50 was 42.4 µM (inactive) in the test with U-251; 29.4 µM (inactive) with DMS-114; > 100 µM (inactive) in the test with OVCAR-5; 48.6 µM (inactive) in the test on SK-MEL-2; 36.6 µM (inactive) in the test with SF-295; 33.9 µM (inactive) in the test with K562. Moreover, the GI50 in the test with NCI-H23 was 49.7 µM (inactive).
In the case of `Cc1nc(Nc2ccccc2)sc1C(=O)CC(=O)C(=O)NC12CC3CC(CC(C3)C1)C2`, the GI50 is > 100 µM (inactive) in the test with NCI-H460; > 100 µM (inactive) in the test on HCC 2998; 82.4 µM (inactive) with CCRF-CEM; > 100 µM (inactive) in the test with HT-29; > 100 µM (inactive) in the test with SW-620; 65.2 µM (inactive) in the test on CAKI-1. The GI50 with U-251 is > 100 µM (inactive); in the test with DMS-114, 78.7 µM (inactive); with OVCAR-5, > 100 µM (inactive); in the test with SK-MEL-2 it was > 100 µM (inactive); in the test with SF-295, 71.3 µM (inactive); in the test on K562, > 100 µM (inactive). The GI50 in the test on NCI-H23 was > 100 µM (inactive).
Take `COc1ccc(/C=N/NC(=O)NCCNCCO)cc1`: the GI50 in the test with NCI-H460, in the test on CCRF-CEM, with HT-29, in the test with SW-620, in the test on CAKI-1 and in the test with U-251 was > 100 µM (inactive) throughout. In addition, the GI50 with DMS-114, in the test with OVCAR-5, in the test with SR, in the test on SK-MEL-2, with SF-295 and with K562 was > 100 µM (inactive) throughout. The GI50 in the test with NCI-H23 is > 100 µM (inactive).
Regarding `COC(=O)c1ccc(C(=O)OC)c2nc3cc(Cl)ccc3nc12`, the GI50 in the test with NCI-H460 was > 100 µM (inactive); in the test with HCC 2998, > 100 µM (inactive); with CCRF-CEM, > 100 µM (inactive); in the test on HT-29, 75.3 µM (inactive); in the test with SW-620, > 100 µM (inactive); in the test with CAKI-1 it was > 100 µM (inactive). The GI50 in the test with U-251, with DMS-114, in the test on OVCAR-5, in the test on SK-MEL-2, in the test on SF-295 and in the test with K562 was > 100 µM (inactive) each time. In addition, the GI50 in the test with NCI-H23 is > 100 µM (inactive).
In the case of `Cc1nc2nnc(C)n2c2c1C(=O)Nc1ccccc1N2`, the GI50 in the test with NCI-H460, with HCC 2998, in the test on CCRF-CEM, with HT-29, with SW-620 and in the test with U-251 was > 100 µM (inactive) throughout. For the same molecule, the GI50 in the test on DMS-114, with SR, in the test with SK-MEL-2, in the test with SF-295, in the test on K562 and in the test with NCI-H23 was > 100 µM (inactive) in each case.
Regarding `Cc1nc(O)nc(CC(O)(c2ccccc2)c2ccccc2)c1-c1ccccc1`, the GI50 in the test on NCI-H460, in the test with HCC 2998, in the test on CCRF-CEM, in the test with HT-29, in the test on SW-620 and in the test with CAKI-1 was > 100 µM (inactive) in each case. Moreover, the GI50 is > 100 µM (inactive) in the test with U-251; 80.5 µM (inactive) with DMS-114; > 100 µM (inactive) in the test on OVCAR-5; > 100 µM (inactive) in the test on SK-MEL-2; > 100 µM (inactive) in the test on SF-295; > 100 µM (inactive) in the test with K562. Moreover, the GI50 with NCI-H23 was > 100 µM (inactive).
Regarding `CCOC(=O)[C@H]1Nc2ccc(OC)cc2C2c3ccccc3CC21` (stereo not given in full), the GI50 in the test with NCI-H460 was > 100 µM (inactive); with HCC 2998 it was 46.8 µM (inactive); in the test with HT-29, > 100 µM (inactive); with SW-620, > 100 µM (inactive); in the test with CAKI-1, > 100 µM (inactive); in the test on U-251 it was > 100 µM (inactive). Besides, the GI50 in the test with DMS-114, with OVCAR-5, in the test with SR, in the test on SK-MEL-2, in the test on SF-295 and with K562 was > 100 µM (inactive) each time. Further, the GI50 in the test with NCI-H23 is > 100 µM (inactive).
As for `CS/C(=N/C(=O)c1ccccc1Cl)SCCS/C(=N\C(=O)c1ccccc1Cl)SC`, the GI50 in the test with NCI-H460, in the test with HCC 2998, in the test on CCRF-CEM, in the test on HT-29, in the test with SW-620 and with CAKI-1 was > 100 µM (inactive) each time. The GI50 in the test on U-251, in the test on DMS-114, in the test with OVCAR-5, in the test on SK-MEL-2, in the test with SF-295 and with K562 was > 100 µM (inactive) throughout. For the same molecule, the GI50 in the test on NCI-H23 was > 100 µM (inactive).
